Data as given in patent publication US11667675B2, “MASP inhibitory compounds and uses thereof” (Bayer Aktiengesellschaft, priority 2019, dated 2023).
Counter-ions that a name gives are not always drawn. Numbered stars: 1 amine (or outer) side, 2 acyl side, 3 side chain; on linkers, the order of the positions; unused ones are H or OH. Bridge positions count the residues as written; N and C are the ends. Square brackets hold non-standard residues; d marks the D form. Peptide text beside a SMILES is read from it. * marks the point of attachment. X1 = O=C(C1[C@H]2CCCC[C@H]2C[C@H]1C(=O)[*:2])[C@@H]1CCCN1[*:1]; Oic = O=C(O)[C@@H]1C[C@@H]2CCCC[C@@H]2N1; Pen = CC(C)(S)[C@H](N)C(=O)O; X2 = N[C@@H](CN*)C(=O)O; Sar = CNCC(=O)O

Assays:
human MASP1 = target: T1, human MASP1 (Homo sapiens, UniProt P48740); assay: Biochemical human MASP1 assay (FRET substrate); settings: average IC50
T1 construct: Ig-kappa secretion signal (N, cleaved yes); made in house; host or cells: HEK293 (ATCC No. CRL-1573)
T1 sequence (P48740 297-448): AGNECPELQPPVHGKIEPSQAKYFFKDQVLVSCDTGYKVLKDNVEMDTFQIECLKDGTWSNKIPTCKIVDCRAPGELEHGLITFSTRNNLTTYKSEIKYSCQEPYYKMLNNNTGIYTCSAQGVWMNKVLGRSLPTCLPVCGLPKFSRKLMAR
T1 sequence (P48740 449-699): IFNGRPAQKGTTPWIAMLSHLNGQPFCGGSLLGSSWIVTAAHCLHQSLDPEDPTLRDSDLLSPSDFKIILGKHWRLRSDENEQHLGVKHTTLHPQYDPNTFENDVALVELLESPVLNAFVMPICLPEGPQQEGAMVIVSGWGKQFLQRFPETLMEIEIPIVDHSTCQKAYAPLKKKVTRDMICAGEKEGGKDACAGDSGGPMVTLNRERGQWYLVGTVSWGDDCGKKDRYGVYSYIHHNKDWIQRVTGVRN
Description: 2.1 Recombinant Expression and Protein Production of Recombinant Human MASP1 and MASP2 Active Proteases.
The MASP1 or MASP2 expression vectors were transfected into the HEK293 (ATCC No. CRL-1573) cell line using Lipofectamine LTX® Reagent (Thermo-Fischer), as described by the manufacturer. […] The MASP1 and MASP2 proteins were purified from the conditioned media by affinity chromatography on Ni-NTA Superflow resin (Qiagen) as described by the manufacturer.
2.2 Biochemical Human MASP1 Assay
Recombinant human MASP1 enzyme produced in the HEK 293 cells was diluted in the reaction buffer (50 mM HEPES pH 8,0; 100 mM NaCl; 0.01% CHAPS; 0.5 mM Gluthathione) to the concentration of 20 nM and 25 μl was transferred into each single well of 384-well white microtiter plate (Greiner Bio One 781075). 1 μl of the inhibitor compound solution (dissolved in DMSO, at the corresponding concentration) or pure DMSO as a control was added to the same wells. […] The microtiter plate was incubated for 60-120 min at the temperature of 32 C. The increase of fluorescence intensity was measured in appropriate fluorescence plate reader (e.g. TECAN Ultra) using excitation wavelength of 320 nm and emission wavelength of 420 nm. IC50 values were calculated from percentage of inhibition of human MASP1 activity as a function of test compound concentration.

rat MASP1 = target: T2, rat MASP1 (Rattus norvegicus, UniProt Q8CHN8); assay: Biochemical rat MASP1 assay (FRET substrate); settings: average IC50; recombinant rat MASP1, FRET substrate
T2 construct: Ig-kappa secretion signal (N, cleaved yes); made in house; host or cells: HEK293 (ATCC No. CRL-1573)
T2 sequence (Q8CHN8 302-453 limits assumed): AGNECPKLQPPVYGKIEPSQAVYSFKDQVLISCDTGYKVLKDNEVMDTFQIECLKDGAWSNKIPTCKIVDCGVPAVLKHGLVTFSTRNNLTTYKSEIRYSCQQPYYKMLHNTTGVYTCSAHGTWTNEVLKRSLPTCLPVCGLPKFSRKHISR
T2 sequence (Q8CHN8 454-704 limits assumed): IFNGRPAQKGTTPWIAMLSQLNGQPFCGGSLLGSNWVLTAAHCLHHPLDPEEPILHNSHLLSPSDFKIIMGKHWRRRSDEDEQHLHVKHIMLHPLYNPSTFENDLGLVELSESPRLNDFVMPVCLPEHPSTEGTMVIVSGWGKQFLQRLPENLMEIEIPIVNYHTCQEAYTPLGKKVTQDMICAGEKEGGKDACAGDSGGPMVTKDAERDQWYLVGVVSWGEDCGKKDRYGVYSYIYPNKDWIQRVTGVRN
Description: 4. Biochemical Rat MASP-1 and MASP-2 Assay
4.1 Recombinant Expression and Protein Production of Recombinant Human and Rat MASP1 and MASP2 Active Proteases.
A truncated cDNA sequence of rat MASP1 encoding the fragment corresponding to the amino acids 302-704 with an C-terminal His Tag and N-terminal Ig-kappa secretion signal (SEQ ID No: 4) was subcloned into the mammalian expression vector pcDNA3.1 (Invitrogen).
The MASP1 or MASP2 expression vectors were transfected into the HEK293 (ATCC No. CRL-1573) cell line using Lipofectamine LTX® Reagent (Thermo-Fischer), as described by the manufacturer. The mature form of the recombinant rat MASP1 and MASP2 proteases were secreted into the culture medium. The MASP1 and MASP2 proteins were purified from the conditioned media by affinity chromatography on Ni-NTA Superflow resin (Qiagen) as described by the manufacturer.
4.2 Biochemical Rat MASP1 Assay.
Recombinant rat MASP1 enzyme produced in the HEK 293 cells was diluted in the reaction buffer (50 mM HEPES pH 8,0; 100 mM NaCl; 0.01% CHAPS; 0.5 mM Gluthathione) to the concentration of 4 nM and 25 μl was transferred into each single well of 384-well white microtiter plate (Greiner Bio One 781075). 1 μl of the inhibitor compound solution (dissolved in DMSO, at the corresponding concentration) or pure DMSO as a control was added to the same wells. The enzymatic reaction was initiated by addition of 25 μl of 40 μM solution of the FRET substrate Dabcyl-[…]-Glu(Edans)-NH2 (SEQ ID NO: 8); (Dabcyl—4-((4-(dimethylamino)phenyl)azo)benzoic acid; Edans—5-[(2-Aminoethyl) amino]naphthalene-1-sulfonyl; custom synthesis by Jerini Peptide Technologies, Berlin) in the reaction buffer. The microtiter plate was incubated for 60-120 min at the temperature of 32 C. The increase of fluorescence intensity was measured in appropriate fluorescence plate reader (e.g. TECAN Ultra) using excitation wavelength of 340 nm and emission wavelength of 490 nm. IC50 values were calculated from percentage of inhibition of rat […] activity as a function of test compound concentration.

rat C3-[…] = assay: C3 deposition assay, rat serum on mannan-coated plates; assay type: biochemical; settings: average IC50
Description: 3. C3 Deposition Assay (Human, Rat, Mouse, Dog, Mini-Pig)
The C3 deposition assay was conducted essentially as described (reference). Multi well plates (Greiner-Nunc 384 Maxi Sorp #464718) were coated over night with Mannan from Saccharomyces cerevisiae (Sigma M7504, 10 μg/mL in 0.05 M carbonate-bicarbonate buffer, pH 9.6) at 4° C. Wells were washed three times with TBS and subsequently incubated for 2 hours with 50 μL of 1% bovine serum albumin (BSA) in Tris-buffered saline (TBS) at 37° C. in order to block non-specific binding. After this step and each of the following incubation steps wells were washed three times with C3 wash buffer (TBS; 0.05% Tween 20; 5 mM CaCl2). […] When appropriately developed the color reaction was stopped by addition of 25 μL of stop solution (Sigma S5814) and quantified on a photometer by measuring absorption at a wavelength of 450 nm. Antibodies were diluted in C3 wash buffer supplemented with 0.5% BSA.

Structure (SMILES): CC[C@H](C)[C@H](NC(=O)CNC)C(=O)N[C@H]1CSSC(C)(C)[C@@H](C(=O)N[C@H](C(=O)N2CCC[C@H]2C(=O)NC[C@H](N)C(=O)O)[C@@H](C)CC)NC(=O)[C@H]([C@@H](C)CC)NC(=O)[C@@H]2C[C@@H]3CCCC[C@@H]3N2C(=O)[C@@H]2CCCN2C(=O)[C@H](CC(C)C)NC(=O)[C@H](CO)NC(=O)[C@H](CCCNC(=N)N)NC(=O)[C@H](CO)NC1=O [Example 467] (H-[Sar]ICSRSLP[Oic]I[Pen]IP-X2; disulfide 3-11)
- IC50 (human MASP1): 0.0066 µM
- IC50 (rat MASP1): 0.17 µM

Structure (SMILES): CC[C@H](C)[C@H](NC(=O)CNC)C(=O)N[C@H]1CSSC(C)(C)[C@@H](C(=O)N[C@H](C(=O)N2CCC[C@H]2C(N)=O)[C@@H](C)CC)NC(=O)[C@H]([C@@H](C)CC)NC(=O)[C@@H]2C[C@@H]3CCCC[C@@H]3N2C(=O)[C@@H]2CCCN2C(=O)[C@H](CC(C)C)NC(=O)[C@H](CO)NC(=O)[C@H](CCCNC(=N)N)NC(=O)[C@H](CO)NC1=O [Example 109, ((N-Me)G)-IC+SRSLP-(Oic)-I-(Pen)+IP-NH2] (H-[Sar]ICSRSLP[Oic]I[Pen]IP-NH2; disulfide 3-11)
- IC50 (human MASP1): 0.0029 µM
- IC50 (rat MASP1): 0.076 µM

Structure (SMILES): CC[C@H](C)[C@H](NC(=O)CNC)C(=O)N[C@H]1CSSC(C)(C)[C@@H](C(=O)N[C@H](C(=O)N2CCC[C@H]2C(N)=O)[C@@H](C)CC)NC(=O)[C@H]([C@@H](C)CC)NC(=O)[C@@H]2C[C@@H]3CCCC[C@@H]3C2C(=O)[C@@H]2CCCN2C(=O)[C@H](CC(C)C)NC(=O)[C@H](CO)NC(=O)[C@H](CCCNC(=N)N)NC(=O)[C@H](CO)NC1=O (stereo partly shown) [Example 67, ((N-Me)G)-IC+SRSLP-(Oic)-I-(Pen)+IP-NH2 (HCl Salt)] (H-[Sar]ICSRSL[X1]I[Pen]IP-NH2; disulfide 3-10)
- IC50 (human MASP1): 0.0022 µM
- IC50 (rat MASP1): 0.072 µM

Structure (SMILES): [2H][C@@H]1[C@H]([2H])CN2C(=O)[C@H](CC(C)C)NC(=O)[C@H](CO)NC(=O)[C@H](CCCNC(=N)N)NC(=O)[C@H](CO)NC(=O)[C@@H](NC(=O)[C@@H](NC(=O)[C@H](C)N)[C@@H](C)CC)CSSC(C)(C)[C@@H](C(=O)N[C@H](C(=O)N3CCC[C@H]3C(=O)N[C@@H](CC(=O)O)C(=O)O)[C@@H](C)CC)NC(=O)[C@H]([C@@H](C)CC)NC(=O)[C@@H]3C[C@@H]4CCCC[C@@H]4N3C(=O)[C@H]12 [Example 142, N-[(1R,2S,6S,9S,12S,15S,18R,23R,26S,28aS,35aS)-18-[(L-alanyl-L-isoleucyl)amino]-26-[(2S)-butan-2-yl]-12-(3-carbamimidamidopropyl)-9,15-bis(hydroxymethyl)-22,22-dimethyl-6-(2-methylpropyl)-5,8,11,14,17,25,28,35-octaoxo(1,2-^2H2)dotriacontahydro-1H,5H,22H-pyrrolo[2′,1′:13,14][1,2,5,8,11,14,17,20,23,26]dithiaoctaazacyclononacosino[11,10-a]indole-23-carbonyl]-L-isoleucyl-L-prolyl-L-aspartic Acid]
- IC50 (human MASP1): 0.00213 µM
- IC50 (rat MASP1): 0.0109 µM
- IC50 (rat C3-[…]): 0.472 µM

Structure (SMILES): CC[C@H](C)[C@H](NC(=O)CNC)C(=O)N[C@H]1CSSC(C)(C)[C@@H](C(=O)N[C@H](C(=O)N2CCC[C@H]2C(=O)N[C@@H](CC(=O)O)C(=O)N[C@@H](CC(=O)O)C(=O)O)[C@@H](C)CC)NC(=O)[C@H]([C@@H](C)CC)NC(=O)[C@@H]2C[C@@H]3CCCC[C@@H]3N2C(=O)[C@@H]2CCCN2C(=O)[C@H](CC(C)C)NC(=O)[C@H](CO)NC(=O)[C@H](CCCNC(=N)N)NC(=O)[C@H](CO)NC1=O [Example 466, ((N-Me)G)-IC+SRSLP-(Oic)-I-(Pen)+IPDD-OH] (H-[Sar]ICSRSLP[Oic]I[Pen]IPDD-OH; disulfide 3-11)
- IC50 (human MASP1): 0.00072 µM
- IC50 (rat MASP1): 0.0176 µM

Structure (SMILES): CC[C@H](C)[C@H](NC(=O)[C@H](C)N)C(=O)N[C@H]1CSSC[C@@H](C(=O)N[C@H](C(=O)N2CCC[C@H]2C(=O)N[C@@H](CC(=O)O)C(N)=O)[C@@H](C)CC)N(C)C(=O)[C@H]([C@@H](C)CC)NC(=O)[C@@H]2C[C@@H]3CCCC[C@@H]3N2C(=O)[C@@H]2CCCN2C(=O)[C@H](CC(C)C)NC(=O)[C@H](CO)NC(=O)[C@H](CCCNC(=N)N)NC(=O)[C@H](CO)NC1=O [Example 185, AIC+SRSLP-(Oic)-I-((N-Me)C)+IPD-NH2]
- IC50 (human MASP1): 0.0048 µM
- IC50 (rat MASP1): 0.057 µM
- IC50 (rat C3-[…]): 0.236 µM

Structure (SMILES): CC[C@H](C)[C@H](NC(=O)[C@H](C)NC)C(=O)N[C@H]1CSSC(C)(C)[C@@H](C(=O)N[C@H](C(=O)N2CCC[C@H]2C(N)=O)[C@@H](C)CC)NC(=O)[C@H]([C@@H](C)CC)NC(=O)[C@@H]2C[C@@]3(CN2C(=O)[C@@H]2CCCN2C(=O)[C@@H](CC(C)(C)C)NC(=O)[C@H](CO)NC(=O)[C@H](CCCNC(=N)N)NC(=O)[C@H](CO)NC1=O)CC3(F)F (single isomer, unassigned; enantiomer 1) [Example 443]
- IC50 (human MASP1): 0.00078 µM
- IC50 (rat MASP1): 0.029 µM
